Results from patent publication US20180002319A1, “MACROCYCLIC PICOLINAMIDE COMPOUNDS WITH FUNGICIDAL ACTIVITY” (DOW AGROSCIENCES LLC, priority 2014, published 2018).

Assays:
Assay type in all cases: in vivo
Uncinula necator = assay: Grape Powdery Mildew (UNCINE) fungicidal activity; conditions: Erysiphe necator, 24 h, 1DP (1 Day Protectant), read-out: UNCINE Disease Control
Procedure: Technical grades of materials were dissolved in acetone, which were then mixed with nine volumes of H2O containing 110 ppm Triton X-100. The fungicide solutions were applied onto wheat seedlings using an automated booth sprayer to run-off. All sprayed plants were allowed to air dry prior to further handling. All fungicides were evaluated using the aforementioned method for their activity vs. all target diseases, unless stated otherwise. Wheat leaf blotch and brown rust activity were also evaluated using track spray applications, in which case the fungicides were formulated as EC formulations, containing 0.1% Trycol 5941 in the spray solutions. Wheat plants (variety Yuma) were grown from seed in a greenhouse in 50% mineral soil/50% soil-less Metro mix until the first leaf was fully emerged, with 7-10 seedlings per pot. These plants were inoculated with an aqueous spore suspension of Zymoseptoria tritici either prior to or after fungicide treatments. After inoculation the plants were kept in 100% relative humidity (one day in a dark dew chamber followed by two to three days in a lighted dew chamber at 20° C.) to permit spores to germinate and infect the leaf. The plants were then transferred to a greenhouse set at 20° C. for disease to develop. When disease symptoms were fully expressed on the 1st leaves of untreated plants, infection levels were assessed on a scale of 0 to 100 percent disease severity. Percent disease control was calculated using the ratio of disease severity on treated plants relative to untreated plants. Example E: Evaluation of Fungicidal Activity: Grape Powdery Mildew (Uncinula necator; Bayer Code […]) Grape seedlings (variety Carignane) were grown in soil-less Metro mix, with one plant per pot, and used in the test when approximately one month old. Plants were inoculated 24 hr after fungicide treatment by shaking spores from infected leaves over test plants. Plants were maintained in a greenhouse set at 20° C. until disease was fully developed. Fungicide formulation, application and disease assessment on the sprayed leaves followed the procedures as described in the Example A.

Erysiphe cichoracearum = assay: Powdery Mildew of Cucumber (ERYSCI) fungicidal activity; conditions: Golovinomyces cichoracearum, 24 h, 1DP (1 Day Protectant), read-out: ERYSCI Disease Control
Procedure: Technical grades of materials were dissolved in acetone, which were then mixed with nine volumes of H2O containing 110 ppm Triton X-100. The fungicide solutions were applied onto wheat seedlings using an automated booth sprayer to run-off. All sprayed plants were allowed to air dry prior to further handling. All fungicides were evaluated using the aforementioned method for their activity vs. all target diseases, unless stated otherwise. Wheat leaf blotch and brown rust activity were also evaluated using track spray applications, in which case the fungicides were formulated as EC formulations, containing 0.1% Trycol 5941 in the spray solutions. Wheat plants (variety Yuma) were grown from seed in a greenhouse in 50% mineral soil/50% soil-less Metro mix until the first leaf was fully emerged, with 7-10 seedlings per pot. These plants were inoculated with an aqueous spore suspension of Zymoseptoria tritici either prior to or after fungicide treatments. After inoculation the plants were kept in 100% relative humidity (one day in a dark dew chamber followed by two to three days in a lighted dew chamber at 20° C.) to permit spores to germinate and infect the leaf. The plants were then transferred to a greenhouse set at 20° C. for disease to develop. When disease symptoms were fully expressed on the 1st leaves of untreated plants, infection levels were assessed on a scale of 0 to 100 percent disease severity. Percent disease control was calculated using the ratio of disease severity on treated plants relative to untreated plants. Example F: Evaluation of Fungicidal Activity: Powdery Mildew of Cucumber (Erysiphe cichoracearum; Bayer Code […]) Cucumber seedlings (variety Bush Pickle) were grown in soil-less Metro mix, with one plant per pot, and used in the test when 12 to 14 days old. Plants were inoculated with a spore suspension 24 hr following fungicide treatments. After inoculation the plants remained in the greenhouse set at 20° C. until disease was fully expressed. Fungicide formulation, application and disease assessment on the sprayed leaves followed the procedures as described in the Example A.

Cercospora beticola = assay: Leaf Spot of Sugar Beets (CERCBE) fungicidal activity; conditions: 24 h, 1DP (1 Day Protectant), sugar beet, read-out: CERCBE Disease Control
Procedure: Technical grades of materials were dissolved in acetone, which were then mixed with nine volumes of H2O containing 110 ppm Triton X-100. The fungicide solutions were applied onto wheat seedlings using an automated booth sprayer to run-off. All sprayed plants were allowed to air dry prior to further handling. All fungicides were evaluated using the aforementioned method for their activity vs. all target diseases, unless stated otherwise. Wheat leaf blotch and brown rust activity were also evaluated using track spray applications, in which case the fungicides were formulated as EC formulations, containing 0.1% Trycol 5941 in the spray solutions. Wheat plants (variety Yuma) were grown from seed in a greenhouse in 50% mineral soil/50% soil-less Metro mix until the first leaf was fully emerged, with 7-10 seedlings per pot. These plants were inoculated with an aqueous spore suspension of Zymoseptoria tritici either prior to or after fungicide treatments. After inoculation the plants were kept in 100% relative humidity (one day in a dark dew chamber followed by two to three days in a lighted dew chamber at 20° C.) to permit spores to germinate and infect the leaf. The plants were then transferred to a greenhouse set at 20° C. for disease to develop. When disease symptoms were fully expressed on the 1st leaves of untreated plants, infection levels were assessed on a scale of 0 to 100 percent disease severity. Percent disease control was calculated using the ratio of disease severity on treated plants relative to untreated plants. Example G: Evaluation of Fungicidal Activity: Leaf Spot of Sugar Beets (Cercospora beticola; Bayer Code CERCBE) Sugar beet plants (variety HH88) were grown in soil-less Metro mix and trimmed regularly to maintain a uniform plant size prior to test. Plants were inoculated with a spore suspension 24 hr after fungicide treatments. Inoculated plants were kept in a dew chamber at 22° C. for 48 hr then incubated in a greenhouse set at 24° C. under a clear plastic hood with bottom ventilation until disease symptoms were fully expressed. Fungicide formulation, application and disease assessment on the sprayed leaves followed the procedures as described in the Example A.

Row | Structure (SMILES) | pest or weed control at 100 ppm (Uncinula necator) [%] | pest or weed control at 100 ppm (Erysiphe cichoracearum) [%] | pest or weed control at 100 ppm (Cercospora beticola) [%]
1 | COc1ccnc(C(=O)N[C@H]2COCC[C@H](Cc3ccccc3)[C@@H](OCC(C)C)[C@H](C)OC2=O)c1OC(C)=O [Compound 21] | > 80 | < 80 | < 80
2 | COc1ccnc(C(=O)N[C@H]2COCC[C@H](Cc3ccccc3)[C@@H](OCC(C)C)[C@H](C)OC2=O)c1OCOC(C)=O [Compound 20] | > 80 | < 80 | > 80
3 | CCCCO[C@H]1CCOC[C@H](NC(=O)c2nccc(OC)c2OCOC(C)=O)C(=O)O[C@@H](C)[C@@H]1OCc1ccccc1 [Compound 2] | < 80 | < 80 | > 80
4 | CCCCCO[C@H]1[C@H](C)OC(=O)[C@@H](NC(=O)c2nccc(OC)c2OCOC(C)=O)CCCC[C@@H]1Oc1ccccc1 [Compound 17] | > 80 | < 80 | > 80
5 | CCCCO[C@H]1CCOC[C@H](NC(=O)c2nccc(OC)c2OCOC(C)=O)C(=O)O[C@@H](C)[C@@H]1OC(=O)C1CC1 [Compound 5] | < 80 | – | < 80
6 | COc1ccnc(C(=O)N[C@H]2COCC[C@@H](OCC(C)C)[C@@H](OCC(C)C)[C@H](C)OC2=O)c1OCOC(C)=O [Compound 6] | < 80 | – | > 80
7 | CCCCO[C@H]1CCOC[C@H](NC(=O)c2nccc(OC)c2OCOC(C)=O)C(=O)O[C@@H](C)[C@@H]1OC(=O)c1ccccc1 [Compound 4] | < 80 | – | < 80
8 | CCCCO[C@H]1CCOC[C@H](NC(=O)c2nccc(OC)c2OCOC(C)=O)C(=O)O[C@@H](C)[C@@H]1OC(=O)C(C)C [Compound 3] | < 80 | – | < 80
9 | COc1ccnc(C(=O)N[C@H]2CCCC[C@H](Oc3ccccc3)[C@@H](Oc3ccccc3)[C@H](C)OC2=O)c1OCOC(C)=O [Compound 19] | < 80 | < 80 | > 80
10 | COc1ccnc(C(=O)N[C@H]2CCOC[C@H](Oc3ccccc3)[C@@H](Oc3ccccc3)[C@H](C)OC2=O)c1OCOC(C)=O [Compound 37] | > 80 | – | > 80
11 | CCCO[C@H]1[C@H](C)OC(=O)[C@@H](NC(=O)c2nccc(OC)c2OCOC(C)=O)CCCC[C@@H]1Oc1ccccc1 [Compound 18] | < 80 | < 80 | > 80
